{"source": "patent US20170298056A1", "about": "“SMALL MOLECULE INHIBITORS OF HIV-1 ENTRY AND METHODS OF USE THEREOF” (Dana-Farber Cancer Institute, Inc., priority 2014, published 2017)", "tested_on": "HIV-1JR-FL", "experiment": "Viral infection assay, recombinant HIV-1 pseudotyped with JR-FL Env (wild type and mutants), Cf2Th-CD4/CCR5 cells", "format": "cell-based", "conditions": "for Fold change: mutant/wild-type IC50", "from_the_text": "HIV-1 Env mutants. Mutations were introduced into the plasmid expressing the fulllength HIV-1YU2 or HIV-1JR-FL Envs using the QuikChange II site-directed mutagenesis protocol or the QuikChange multi site-directed mutagenesis kit (Stratagene). The presence of the desired mutations was confirmed by DNA sequencing. All HIV-1 Env residues are numbered based on alignment with the HXBc2 prototypic sequence, according to current convention.\nProduction of recombinant HIV-1 expressing luciferase. […] After 48 hours, the supernatant was collected, buffered with 50 mM Hepes pH 7.4 (final concentration) and centrifuged for 5 minutes at 750×g and 4° C. The virus-containing supernatant was used directly or frozen at −80° C.\nViral infection assay. Each test compound was serially diluted in DMSO in a 96-well B&W isoplate (PerkinElmer, Boston, Mass.) using an HP D300 Digital Dispenser, to a final volume of 450 nl. DMSO was used as a control. Viruses pseudotyped with a specific Env were added to each well and incubated briefly at room temperature. Cf2Th-CD4/CCR5 cells were detached with StemPro Accutase Cell Dissociation Reagent (Invitrogen, cat #A11105-01), washed once, and 5000 cells were added to each well. […] Following incubation, the medium was aspirated and cells were lysed with 30 μl of Passive Lysis Buffer (Promega, cat #E1941). The activity of the firefly luciferase, which was used as a reporter protein in the system, was measured with a Centro LB 960 luminometer (Berthold Technologies, Oak Ridge, Tenn.). One hundred microliters of assay buffer (15 mM MgSO4, 15 mM KH2PO4/K2HPO4 pH 7.8, 1 mM ATP and 1 mM DTT) was injected to each well, followed by a 50 μl injection of 1 mM Dluciferin potassium salt (BD Pharmingen, San Jose, Calif.); luminescence was measured for 2 sec. Infection of PBMC was done as above, but 20,000-40,000 cells/well and viruses concentrated by ultracentrifugation were used. After four hours of incubation with viruses, the cells were centrifuged at 200×g for 6 minutes at 4° C., resuspended in 100 μl RPMI-PBMC medium and incubated at 37° C. for an additional 36-40 hours (total 40-44 hours). Supernatant was removed after centrifugation at 400×g for 5 minutes and cells were processed to detect luciferase activity, as described above.", "note": "Like-named read-outs stand apart in the source and are kept apart here."}
{"smiles": "O=C(N/N=C/c1ccc(O)cc1)Nc1cccc2nsnc12", "note": "[Compound 18A]", "values": [{"measurement": "IC50", "setting": "Example 8 table, read-out: IC50 (JR-FL)", "value": 3.6, "unit": "µM"}, {"measurement": "Fold change", "setting": "JR-FL Env D167A", "value": 1.5}, {"measurement": "IC50", "setting": "JR-FL Env D167A, read-out: IC50", "value": "5.3 ± 1.5", "unit": "µM"}, {"measurement": "Fold change", "setting": "JR-FL Env E153A", "value": 0.9}, {"measurement": "IC50", "setting": "JR-FL Env E153A, read-out: IC50", "value": "3.1 ± 0.7", "unit": "µM"}, {"measurement": "Fold change", "setting": "JR-FL Env E168K + N188A", "value": 0.7}, {"measurement": "Fold change", "setting": "JR-FL Env I109W", "value": 0.4}, {"measurement": "IC50", "setting": "JR-FL Env I109W, read-out: IC50", "value": "1.6 ± 0.8", "unit": "µM"}, {"measurement": "Fold change", "setting": "JR-FL Env I154A", "value": 4.8}, {"measurement": "IC50", "setting": "JR-FL Env I154A, read-out: IC50", "value": "17.1 ± 0.9", "unit": "µM"}, {"measurement": "Fold change", "setting": "JR-FL Env I194A", "value": 0.5}, {"measurement": "IC50", "setting": "JR-FL Env I194A, read-out: IC50", "value": "1.8 ± 0.4", "unit": "µM"}, {"measurement": "Fold change", "setting": "JR-FL Env I424A", "value": 4.5}, {"measurement": "IC50", "setting": "JR-FL Env I424A, read-out: IC50", "value": "16.2 ± 2", "unit": "µM"}, {"measurement": "Fold change", "setting": "JR-FL Env K155A", "value": 0.6}, {"measurement": "IC50", "setting": "JR-FL Env K155A, read-out: IC50", "value": "2.1 ± 0.9", "unit": "µM"}, {"measurement": "Fold change", "setting": "JR-FL Env K178A", "value": 0.4}, {"measurement": "IC50", "setting": "JR-FL Env K178A, read-out: IC50", "value": "1.6 ± 0.3", "unit": "µM"}, {"measurement": "Fold change", "setting": "JR-FL Env L175A", "value": 2.1}, {"measurement": "IC50", "setting": "JR-FL Env L175A, read-out: IC50", "value": "7.7 ± 1.2", "unit": "µM"}, {"measurement": "Fold change", "setting": "JR-FL Env L179G", "value": 1.8}, {"measurement": "IC50", "setting": "JR-FL Env L179G, read-out: IC50", "value": "6.5 ± 0.7", "unit": "µM"}, {"measurement": "Fold change", "setting": "JR-FL Env L193A", "value": 5.0}, {"measurement": "IC50", "setting": "JR-FL Env L193A, read-out: IC50", "value": "18.1 ± 2", "unit": "µM"}, {"measurement": "Fold change", "setting": "JR-FL Env M147A", "value": 1.3}, {"measurement": "IC50", "setting": "JR-FL Env M147A, read-out: IC50", "value": "4.8 ± 1.2", "unit": "µM"}, {"measurement": "Fold change", "setting": "JR-FL Env M434A", "value": 5.0}, {"measurement": "IC50", "setting": "JR-FL Env M434A, read-out: IC50", "value": "17.9 ± 1.2", "unit": "µM"}, {"measurement": "Fold change", "setting": "JR-FL Env N136A", "value": 0.5}, {"measurement": "IC50", "setting": "JR-FL Env N136A, read-out: IC50", "value": "1.8 ± 0.1", "unit": "µM"}, {"measurement": "Fold change", "setting": "JR-FL Env N139A", "value": 0.5}, {"measurement": "IC50", "setting": "JR-FL Env N139A, read-out: IC50", "value": "1.9 ± 0.2", "unit": "µM"}, {"measurement": "Fold change", "setting": "JR-FL Env N141A", "value": 0.5}, {"measurement": "IC50", "setting": "JR-FL Env N141A, read-out: IC50", "value": "1.7 ± 0.3", "unit": "µM"}, {"measurement": "Fold change", "setting": "JR-FL Env N156A", "value": 5.2}, {"measurement": "IC50", "setting": "JR-FL Env N156A, read-out: IC50", "value": "18.7 ± 1.5", "unit": "µM"}, {"measurement": "Fold change", "setting": "JR-FL Env N187A + N188A", "value": 0.7}, {"measurement": "Fold change", "setting": "JR-FL Env N188A", "value": 1.2}, {"measurement": "IC50", "setting": "JR-FL Env N188A, read-out: IC50", "value": "4.2 ± 0.8", "unit": "µM"}, {"measurement": "Fold change", "setting": "JR-FL Env Q114E", "value": 0.9}, {"measurement": "IC50", "setting": "JR-FL Env Q114E, read-out: IC50", "value": "3.4 ± 0.6", "unit": "µM"}, {"measurement": "Fold change", "setting": "JR-FL Env Q422A", "value": 2.2}, {"measurement": "IC50", "setting": "JR-FL Env Q422A, read-out: IC50", "value": "7.8 ± 1.7", "unit": "µM"}, {"measurement": "Fold change", "setting": "JR-FL Env R166A", "value": 0.8}, {"measurement": "IC50", "setting": "JR-FL Env R166A, read-out: IC50", "value": "2.9 ± 0.6", "unit": "µM"}, {"measurement": "Fold change", "setting": "JR-FL Env T143A + S146A", "value": 0.7}, {"measurement": "Fold change", "setting": "JR-FL Env T163A + S164A", "value": 0.8}, {"measurement": "Fold change", "setting": "JR-FL Env V134A", "value": 0.8}, {"measurement": "IC50", "setting": "JR-FL Env V134A, read-out: IC50", "value": "2.8 ± 2.1", "unit": "µM"}, {"measurement": "Fold change", "setting": "JR-FL Env V430S", "value": 0.2}, {"measurement": "IC50", "setting": "JR-FL Env V430S, read-out: IC50", "value": "0.7 ± 0.3", "unit": "µM"}, {"measurement": "Fold change", "setting": "JR-FL Env W112A", "value": 0.8}, {"measurement": "IC50", "setting": "JR-FL Env W112A, read-out: IC50", "value": "2.8 ± 0.7", "unit": "µM"}, {"measurement": "Fold change", "setting": "JR-FL Env W479A", "value": 0.2}, {"measurement": "IC50", "setting": "JR-FL Env W479A, read-out: IC50", "value": "0.8 ± 0.2", "unit": "µM"}, {"measurement": "Fold change", "setting": "JR-FL Env Y173A", "value": 0.9}, {"measurement": "IC50", "setting": "JR-FL Env Y173A, read-out: IC50", "value": "3.1 ± 1.2", "unit": "µM"}, {"measurement": "Fold change", "setting": "JR-FL Env Y177A", "value": 2.8}, {"measurement": "IC50", "setting": "JR-FL Env Y177A, read-out: IC50", "value": "10.2 ± 1", "unit": "µM"}, {"measurement": "Fold change", "setting": "JR-FL Env Y435A", "value": 3.5}, {"measurement": "IC50", "setting": "JR-FL Env Y435A, read-out: IC50", "value": "12.7 ± 3.5", "unit": "µM"}, {"measurement": "IC50", "setting": "JR-FL Env double mutant E168K + N188A, read-out: IC50", "value": "2.4 ± 1.4", "unit": "µM"}, {"measurement": "IC50", "setting": "JR-FL Env double mutant N187A + N188A, read-out: IC50", "value": "2.5 ± 0.6", "unit": "µM"}, {"measurement": "IC50", "setting": "JR-FL Env double mutant T143A + S146A, read-out: IC50", "value": "2.4 ± 0.2", "unit": "µM"}, {"measurement": "IC50", "setting": "JR-FL Env double mutant T163A + S164A, read-out: IC50", "value": "2.7 ± 0.3", "unit": "µM"}, {"measurement": "Fold change", "setting": "JR-FL Env wild type", "value": 1}, {"measurement": "IC50", "setting": "JR-FL Env wild type, read-out: IC50", "value": 3.6, "unit": "µM"}, {"measurement": "Therapeutic Index (TI)", "setting": "calculated from IC50 against JR-FL and A-MLV", "value": 15.9}, {"measurement": "effect of glycosidase inhibitor treatment of virions on 18A inhibition", "setting": "virions produced in the presence of two glycosidase inhibitors", "value": "Neither treatment had a significant effect"}]}
